Measurements published in US12600724B2, “Indole alkaloid and preparation method and use thereof” (NANJING UNIVERSITY OF CHINESE MEDICINE, priority 2022, dated 2026).

Experiments:
[1] = system: type-2 diabetes model db/db mice; assay: 50% mechanical pain threshold (Von frey), type-2 diabetes db/db mice; type: in vivo, BKS db/db mice; conditions: S26 46.8 mg/kg/day intragastric, Mean ± SD, n = 6
Protocol: Type-2 diabetes mice: male 18-week-old BKS db/db mice were purchased from Jiangsu Gempharmatech Biotechnology Co., Ltd. One week after adaptive feeding, the mice were divided into a control group (db/m mice), a model group (db/db mice) and a S26 administration group (46.8 mg/kg/day) respectively according to body weight and blood sugar, and administrated intragastrically for four weeks continuously. This experiment was based on a principle that claws of rodents would have a withdrawal reflex under mechanical stimulation. A Von frey tactile measuring set was purchased from Ugo Basile Company, and Von frey filaments could provide 0.008 g to 300 g of stimulating force, wherein a thickness of the filaments determined a magnitude of the stimulating force. Specific experimental method: filaments with proper thicknesses were selected to vertically stimulate a skin, and the stimulating force was adjusted by replacing the filaments, until the filaments were bent. One mouse was tested for 6 times to determine a threshold, and a 50% mechanical pain threshold of the mouse was calculated according to 50% threshold=(10^(Xf+k δ))/10000, which was detected weekly before and after administration respectively.

[2] = system: type-2 diabetes model db/db mice; assay: Motor nerve conduction velocity, type-2 diabetes db/db mice; type: in vivo, BKS db/db mice; conditions: for Motor nerve conduction velocity: db/db mice, S26 46.8 mg/kg/day intragastric, Mean ± SD, n = 3
Protocol: Type-2 diabetes mice: male 18-week-old BKS db/db mice were purchased from Jiangsu Gempharmatech Biotechnology Co., Ltd. One week after adaptive feeding, the mice were divided into a control group (db/m mice), a model group (db/db mice) and a S26 administration group (46.8 mg/kg/day) respectively according to body weight and blood sugar, and administrated intragastrically for four weeks continuously. Before administration, 2 weeks and 4 weeks after administration, motor nerve conduction velocities (MNCV) of left and right sides of each group of mice were detected, and a mean value of the velocities of two sides was taken as a nerve conduction velocity of each mouse. Specific experimental method: (1) electrode placement: a stimulating electrode was placed on a nerve trunk, a recording electrode was placed on a muscle belly, and a reference electrode was placed on a muscle tendon; and a ground electrode was placed between the stimulating electrode and the recording electrode. (2) Calculation of motor nerve conduction velocity: distal and proximal ends of the nerve trunk were stimulated in a super-strong manner, a compound muscle action potential could be recorded twice on a muscle innervated by the nerve, different latent periods of the compound muscle action potentials were measured, and a distance between the distal and proximal ends was divided by a difference between the two latent periods, so as to obtain the nerve conduction velocity. Computational formula: nerve conduction velocity (m/s)=distance between two ends (cm)×10/difference between two latent periods (ms).

## CC[C@@]12C=C(C(=O)NCC(=O)OCCOCCOCCOCCO)n3c4c(c5ccccc53)CCN(CCC1)[C@H]42 [Compound S26]
[1]; week 0 of administration
  50% mechanical pain threshold: 1.33 ± 0.56^ g
[1]; week 1 of administration
  50% mechanical pain threshold: 1.04 ± 0.55^ g
[1]; week 2 of administration
  50% mechanical pain threshold: 0.91 ± 0.37 g
[1]; week 3 of administration
  50% mechanical pain threshold: 0.72 ± 0.39 g
[1]; week 4 of administration
  50% mechanical pain threshold: 0.71 ± 0.42 g
[2]; week 0 of administration
  Motor nerve conduction velocity: 20.45 ± 3.94^ m/s
[2]; week 2 of administration
  Motor nerve conduction velocity: 29.70 ± 4.27 m/s
[2]; week 4 of administration
  Motor nerve conduction velocity: 36.57 ± 3.34 m/s
[2]; type-2 diabetes mouse, Tables 5 to 7
  Motor nerve conduction velocity and anesthesia symptom (in words): obviously improve
